Reference: patent publication US4317881A (priority 1979, dated 1982)

System: cyclodextrin glycosyltransferase (E.C. 2.4.1.19)
Test: not given
Assay type: biochemical, Micrococcus varians M 849
Conditions: pH 7
For `c1cnc2c(c1)ccc1cccnc12` [O-Phenanthroline], the Residual activity was 100%. For `O=C(O)CN(CCN(CC(=O)O)CC(=O)O)CC(=O)O` [Ethylenediaminetetraacetic acid], the “Inhibition of the enzyme (in words)” value was “inhibited” and the Residual activity was 2%. In the case of `O=C(O)CI` [Monoiodoacetic acid], the Residual activity is reported as 97%. Molecule `[Cl-].[Cl-].[Co+2]` [CoCl2] has a Residual activity of 88%. `O=C(O)c1cc[c]([Hg][Cl])cc1` [p-Chloromercuribenzoic acid] gave a Residual activity of 95%. With HgCl2 the “Inhibition of the enzyme (in words)” value was “inhibited” and the Residual activity was 5%. Molecule `[Cl-].[Cl-].[Mg+2]` [MgCl2] has a Residual activity of 100%. In the case of `O=S(=O)([O-])[O-].[Fe+2]` [FeSO4], the “Inhibition of the enzyme (in words)” value is reported as “inhibited” and the Residual activity is reported as 10%. `[Ca+2].[Cl-].[Cl-]` [CaCl2, calcium chloride] showed a Residual activity of 100%. In the case of `O=S(=O)([O-])[O-].[Cu+2]` [CuSO4], the “Inhibition of the enzyme (in words)” value is reported as “inhibited” and the Residual activity is reported as 6%. For `O=S(=O)([O-])[O-].[Mg+2]` [MgSO4], the Residual activity was 100%. Work on `[Cl-].[Cl-].[Zn+2]` [ZnCl2] yielded a Residual activity of 100%.

System: not listed separately
Test: Inactivation of the enzyme by pH and temperature, with and without calcium
Conditions: 10^-2 M calcium chloride, 15 min treatment (FIG. 6)
For `[Ca+2].[Cl-].[Cl-]` [CaCl2, calcium chloride], the “Rise of the temperature at which the enzyme is still stable, versus absence of the metal ion” value was ~5 °C.

Same assay, conditions: 10^-2 M-10^-3 M calcium chloride
With `[Ca+2].[Cl-].[Cl-]` [CaCl2, calcium chloride] the “Thermostability of the enzyme on addition of the salt” value was “enhanced”.
